From EP4786487A1, “PEPTIDE” (Peptidream Inc, priority 2023, dated 2025)
Positions of bridges follow the written chain, without caps; N, C: chain ends. Non-standard residues stand in square brackets, D forms with d. Residues, ends and D or L forms follow the SMILES beside them. Phe(4-COOH) = N[C@@H](Cc1ccc(C(=O)O)cc1)C(=O)O; Trp(7-aza) = N[C@@H](Cc1c[nH]c2ncccc12)C(=O)O; Gly(N(CH2)3COOH) = O=C(O)CCCNCC(=O)O; NMeF = CN[C@@H](Cc1ccccc1)C(=O)O; 3Pal = N[C@@H](Cc1cccnc1)C(=O)O; Gly(N(CH2)3NH2) = NCCCNCC(=O)O; NMeA = CN[C@@H](C)C(=O)O; Dap = NC[C@H](N)C(=O)O; Sar = CNCC(=O)O

Tests used:
Myostatin = target: T1, Myostatin (Homo sapiens, UniProt O14793); experiment: HepG2 reporter gene assay, Evaluation Procedure (2): 2-concentrations assay, myostatin inhibition; assay type: cell-based; conditions: Myostatin 10 ng/mL, HepG2; for inhibition at 0.03 µM: peptide 30nM, read-out: Myostatin Inhibition 30nM; for inhibition at 0.1 µM: peptide 100nM, read-out: Myostatin Inhibition 100nM
T1 construct: active myostatin (also called mature myostatin) is a homodimer consisting of two C-terminal growth factor domains; purchased R&D systems 788-G8/CF
T1 sequence (O14793 267-375): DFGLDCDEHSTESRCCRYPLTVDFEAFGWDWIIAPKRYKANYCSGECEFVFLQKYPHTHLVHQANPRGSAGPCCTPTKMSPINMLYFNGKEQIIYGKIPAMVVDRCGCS
Description: (§1) The pGL3(CAGA)12-luc plasmid, namely a pGL3 vector (E1751, Promega) having a luciferase gene inserted downstream of a promoter sequence with 12 CAGA repeats attached, was transfected into HepG2 cell line (HB-8065, ATCC). The culture of HepG2 cell line (HB-8065, ATCC) was performed as in the Evaluation Procedure (1).
(§2) Myostatin (788-G8/CF, R&D systems) or GDF-11 (1958-GD-G8/CF, R&D systems) was added at a final concentration of 10 ng/mL. […] At this time, blank wells, in which neither myostatin, GDF-11, nor each peptide was added, were also prepared and incubated in a CO2 incubator (37°C, 5% CO2) for 20 to 24 hours.
(§3) The medium containing the cells was removed, and a mixture containing PBS (14190144, Thermo) and a chromogenic substrate One-Glo Luciferase Assay System (E6120, Promega) at a ratio of 1:1 was added to each well at 100 µL/well. This was stirred with a plate shaker for 5 min and transferred to a 384-well plate (3570, Corning) at a volume of 20 µL/well.
(§4) The plate was centrifuged at 1,000 × g for 1 min and the luminescence signal (700 nm luminescence) was measured using a plate reader (Envision 2104, PerkinElmer). Based on the measurement results, the inhibition rate at each peptide concentration was calculated. […]

GDF-11 = target: T2, GDF-11 (Homo sapiens, UniProt O95390); experiment: HepG2 reporter gene assay, Evaluation Procedure (2): 2-concentrations assay, GDF-11 inhibition; assay type: cell-based; conditions: GDF-11 10 ng/mL; for inhibition at 0.03 µM: HepG2, peptide 30nM, read-out: GDF11 Inhibition 30nM; for inhibition at 0.1 µM: HepG2, peptide 100nM, read-out: GDF11 Inhibition 100nM
T2 construct: purchased R&D systems 1958-GD-G8/CF
T2 sequence (O95390 299-407): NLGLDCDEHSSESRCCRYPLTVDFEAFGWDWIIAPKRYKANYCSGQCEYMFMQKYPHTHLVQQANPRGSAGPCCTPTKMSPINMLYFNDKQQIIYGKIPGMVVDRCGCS
Description: as §1, §2, §3, §4

inhibition at 0.03 µM (Myostatin) | inhibition at 0.1 µM (Myostatin) | inhibition at 0.03 µM (GDF-11) | inhibition at 0.1 µM (GDF-11) | Structure (SMILES)
50% | 82% | 0% | 3% | CC[C@H](C)[C@@H]1NC(=O)[C@H](Cc2ccccc2)N(C)C(=O)[C@H](Cc2ccc(O)cc2)NC(=O)[C@H](Cc2c[nH]c3ccccc23)NC(=O)[C@H](CCCNC(=N)N)NC(=O)[C@H](C)NC(=O)CSC[C@@H](C(=O)N[C@H](CCC(=O)O)C(N)=O)NC(=O)[C@H](Cc2ccccc2)N(C)C(=O)[C@H](C)N(C)C(=O)[C@H](CC(C)C)NC(=O)[C@H](Cc2ccccc2)N(C)C(=O)[C@H](CCCNC(=N)N)NC(=O)[C@H](Cc2ccc(O)cc2)NC(=O)[C@H](Cc2ccc(O)cc2)NC(=O)CN(C)C1=O [Myostatin_000099_16de] ({CH2CO}-ARWY[NMeF]I[Sar]YYR[NMeF]L[NMeA][NMeF]C[dE]-NH2; thioether N-15)
40% | 65% | 0% | 0% | CC[C@H](C)[C@@H]1NC(=O)[C@H](Cc2ccccc2)N(C)C(=O)[C@H](Cc2ccc(O)cc2)NC(=O)[C@H](Cc2c[nH]c3ccccc23)NC(=O)[C@H](C)NC(=O)CN(CCCC(=O)O)C(=O)CSC[C@H](C(=O)O)NC(=O)[C@H](Cc2ccccc2)N(C)C(=O)[C@H](C)N(C)C(=O)[C@H](CC(C)C)NC(=O)[C@H](Cc2ccccc2)N(C)C(=O)[C@H](CCCNC(=N)N)NC(=O)[C@H](Cc2ccc(O)cc2)NC(=O)[C@H](Cc2ccc(C(=O)O)cc2)NC(=O)CN(C)C1=O [Myostatin_99_Variant_06] ({CH2CO}-[Gly(N(CH2)3COOH)]AWY[NMeF]I[Sar][Phe(4-COOH)]YR[NMeF]L[NMeA][NMeF][dC]-OH; thioether N-15)
72% | 92% | 7% | 22% | CC[C@H](C)[C@@H]1NC(=O)[C@H](Cc2ccccc2)N(C)C(=O)[C@H](Cc2ccc(O)cc2)NC(=O)[C@H](Cc2c[nH]c3ccccc23)NC(=O)[C@H](CN)NC(=O)[C@H](C)NC(=O)CSC[C@H](C(=O)N[C@@H](CN)C(N)=O)NC(=O)[C@H](Cc2ccccc2)N(C)C(=O)[C@H](C)N(C)C(=O)[C@H](CC(C)C)NC(=O)[C@H](Cc2ccccc2)N(C)C(=O)[C@H](CCCNC(=N)N)NC(=O)[C@H](Cc2ccc(O)cc2)NC(=O)[C@H](Cc2ccc(O)cc2)NC(=O)CN(C)C1=O [Myostatin_99_Variant_08] ({CH2CO}-A[Dap]WY[NMeF]I[Sar]YYR[NMeF]L[NMeA][NMeF][dC][Dap]-NH2; thioether N-15)
65% | 90% | 0% | 11% | CC[C@H](C)[C@@H]1NC(=O)[C@H](Cc2ccccc2)N(C)C(=O)[C@H](Cc2ccc(O)cc2)NC(=O)[C@H](Cc2c[nH]c3ccccc23)NC(=O)[C@H](C)NC(=O)CN(CCCN)C(=O)CSC[C@H](C(=O)N[C@@H](CN)C(N)=O)NC(=O)[C@H](Cc2ccccc2)N(C)C(=O)[C@H](C)N(C)C(=O)[C@H](CC(C)C)NC(=O)[C@H](Cc2ccccc2)N(C)C(=O)[C@H](CCCNC(=N)N)NC(=O)[C@H](Cc2ccc(O)cc2)NC(=O)[C@H](Cc2ccc(O)cc2)NC(=O)CN(C)C1=O [Myostatin_99_Variant_09] ({CH2CO}-[Gly(N(CH2)3NH2)]AWY[NMeF]I[Sar]YYR[NMeF]L[NMeA][NMeF][dC][Dap]-NH2; thioether N-15)
60% | 89% | 11% | 29% | CC[C@H](C)[C@@H]1NC(=O)[C@H](Cc2ccccc2)N(C)C(=O)[C@H](Cc2ccc(O)cc2)NC(=O)[C@H](Cc2c[nH]c3ccccc23)NC(=O)[C@H](CN)NC(=O)[C@H](C)NC(=O)CSC[C@H](C(=O)N[C@@H](CN)C(=O)N[C@@H](CN)C(N)=O)NC(=O)[C@H](Cc2ccccc2)N(C)C(=O)[C@H](C)N(C)C(=O)[C@H](CC(C)C)NC(=O)[C@H](Cc2ccccc2)N(C)C(=O)[C@H](CCCNC(=N)N)NC(=O)[C@H](Cc2ccc(O)cc2)NC(=O)[C@H](Cc2ccc(O)cc2)NC(=O)CN(C)C1=O [Myostatin_99_Variant_10] ({CH2CO}-A[Dap]WY[NMeF]I[Sar]YYR[NMeF]L[NMeA][NMeF][dC][Dap][Dap]-NH2; thioether N-15)
75% | 94% | 22% | 26% | CC[C@H](C)[C@@H]1NC(=O)[C@H](Cc2ccccc2)N(C)C(=O)[C@H](Cc2ccc(O)cc2)NC(=O)[C@H](Cc2c[nH]c3ccccc23)NC(=O)[C@H](C)NC(=O)[C@H](C)NC(=O)CSC[C@H](C(=O)N[C@@H](CN)C(N)=O)NC(=O)[C@H](Cc2ccccc2)N(C)C(=O)[C@H](C)N(C)C(=O)[C@H](CC(C)C)NC(=O)[C@H](Cc2ccccc2)N(C)C(=O)[C@H](CCCNC(=N)N)NC(=O)[C@H](Cc2ccc(O)cc2)NC(=O)[C@H](CCCCN)NC(=O)CN(C)C1=O [Myostatin_99_Variant_11] ({CH2CO}-AAWY[NMeF]I[Sar]KYR[NMeF]L[NMeA][NMeF][dC][Dap]-NH2; thioether N-15)
51% | 76% | 8% | 12% | CC[C@H](C)[C@@H]1NC(=O)[C@H](Cc2ccccc2)N(C)C(=O)[C@H](Cc2ccc(O)cc2)NC(=O)[C@H](Cc2c[nH]c3ccccc23)NC(=O)[C@H](CN)NC(=O)CN(CCCN)C(=O)CSC[C@H](C(N)=O)NC(=O)[C@H](Cc2ccccc2)N(C)C(=O)[C@H](C)N(C)C(=O)[C@H](CC(C)C)NC(=O)[C@H](Cc2ccccc2)N(C)C(=O)[C@H](CCCNC(=N)N)NC(=O)[C@H](Cc2ccc(O)cc2)NC(=O)[C@H](Cc2ccc(O)cc2)NC(=O)CN(C)C1=O [Myostatin_99_Variant_13] ({CH2CO}-[Gly(N(CH2)3NH2)][Dap]WY[NMeF]I[Sar]YYR[NMeF]L[NMeA][NMeF][dC]-NH2; thioether N-15)
41% | 73% | 0% | 1% | CC[C@H](C)[C@@H]1NC(=O)[C@H](Cc2ccccc2)N(C)C(=O)[C@H](Cc2ccc(O)cc2)NC(=O)[C@H](Cc2c[nH]c3ncccc23)NC(=O)[C@H](C)NC(=O)CN(CCCC(=O)O)C(=O)CSC[C@H](C(N)=O)NC(=O)[C@H](Cc2ccccc2)N(C)C(=O)[C@H](C)N(C)C(=O)[C@H](CC(C)C)NC(=O)[C@H](Cc2ccccc2)N(C)C(=O)[C@H](CCCNC(=N)N)NC(=O)[C@H](Cc2ccc(C(=O)O)cc2)NC(=O)[C@H](Cc2ccc(O)cc2)NC(=O)CN(C)C1=O [Myostatin_99_Variant_14] ({CH2CO}-[Gly(N(CH2)3COOH)]A[Trp(7-aza)]Y[NMeF]I[Sar]Y[Phe(4-COOH)]R[NMeF]L[NMeA][NMeF][dC]-NH2; thioether N-15)
54% | 84% | 0% | 0% | CC[C@H](C)[C@@H]1NC(=O)[C@H](Cc2ccccc2)N(C)C(=O)[C@H](Cc2ccc(O)cc2)NC(=O)[C@H](Cc2c[nH]c3ccccc23)NC(=O)[C@H](C)NC(=O)CN(CCCC(=O)O)C(=O)CSC[C@H](C(N)=O)NC(=O)[C@H](Cc2ccccc2)N(C)C(=O)[C@H](C)N(C)C(=O)[C@H](CC(C)C)NC(=O)[C@H](Cc2ccccc2)N(C)C(=O)[C@H](CCCNC(=N)N)NC(=O)[C@H](Cc2ccc(C(=O)O)cc2)NC(=O)[C@H](Cc2ccc(O)cc2)NC(=O)[C@H](C)N(C)C1=O [Myostatin_99_Variant_15] ({CH2CO}-[Gly(N(CH2)3COOH)]AWY[NMeF]I[NMeA]Y[Phe(4-COOH)]R[NMeF]L[NMeA][NMeF][dC]-NH2; thioether N-15)
34% | 75% | 0% | 4% | CC[C@H](C)[C@@H]1NC(=O)[C@H](Cc2ccccc2)N(C)C(=O)[C@H](Cc2ccc(O)cc2)NC(=O)[C@H](Cc2c[nH]c3ccccc23)NC(=O)[C@H](C)NC(=O)CN(CCCC(=O)O)C(=O)CSC[C@H](C(N)=O)NC(=O)[C@H](Cc2ccccc2)N(C)C(=O)[C@H](C)N(C)C(=O)[C@H](CC(C)C)NC(=O)[C@H](Cc2ccccc2)N(C)C(=O)[C@H](CCCNC(=N)N)NC(=O)[C@H](Cc2cccnc2)NC(=O)[C@H](Cc2ccc(O)cc2)NC(=O)CN(C)C1=O [Myostatin_99_Variant_16] ({CH2CO}-[Gly(N(CH2)3COOH)]AWY[NMeF]I[Sar]Y[3Pal]R[NMeF]L[NMeA][NMeF][dC]-NH2; thioether N-15)
